Here are results for 12 compounds from patent US7084167B2, “Calcium receptor active molecules and method for preparing same” (Centre National de la Rechereche Scientifique (CNRS), priority 2000, dated 2006).

The target in one data set is T1, CaSR (Rattus norvegicus, UniProt P48442).
T1 construct: expressed in transfected cells; host or cells: CHO (Chinese hamster ovary) cells, CHO(CaSR)
T1 sequence (P48442 20-1079): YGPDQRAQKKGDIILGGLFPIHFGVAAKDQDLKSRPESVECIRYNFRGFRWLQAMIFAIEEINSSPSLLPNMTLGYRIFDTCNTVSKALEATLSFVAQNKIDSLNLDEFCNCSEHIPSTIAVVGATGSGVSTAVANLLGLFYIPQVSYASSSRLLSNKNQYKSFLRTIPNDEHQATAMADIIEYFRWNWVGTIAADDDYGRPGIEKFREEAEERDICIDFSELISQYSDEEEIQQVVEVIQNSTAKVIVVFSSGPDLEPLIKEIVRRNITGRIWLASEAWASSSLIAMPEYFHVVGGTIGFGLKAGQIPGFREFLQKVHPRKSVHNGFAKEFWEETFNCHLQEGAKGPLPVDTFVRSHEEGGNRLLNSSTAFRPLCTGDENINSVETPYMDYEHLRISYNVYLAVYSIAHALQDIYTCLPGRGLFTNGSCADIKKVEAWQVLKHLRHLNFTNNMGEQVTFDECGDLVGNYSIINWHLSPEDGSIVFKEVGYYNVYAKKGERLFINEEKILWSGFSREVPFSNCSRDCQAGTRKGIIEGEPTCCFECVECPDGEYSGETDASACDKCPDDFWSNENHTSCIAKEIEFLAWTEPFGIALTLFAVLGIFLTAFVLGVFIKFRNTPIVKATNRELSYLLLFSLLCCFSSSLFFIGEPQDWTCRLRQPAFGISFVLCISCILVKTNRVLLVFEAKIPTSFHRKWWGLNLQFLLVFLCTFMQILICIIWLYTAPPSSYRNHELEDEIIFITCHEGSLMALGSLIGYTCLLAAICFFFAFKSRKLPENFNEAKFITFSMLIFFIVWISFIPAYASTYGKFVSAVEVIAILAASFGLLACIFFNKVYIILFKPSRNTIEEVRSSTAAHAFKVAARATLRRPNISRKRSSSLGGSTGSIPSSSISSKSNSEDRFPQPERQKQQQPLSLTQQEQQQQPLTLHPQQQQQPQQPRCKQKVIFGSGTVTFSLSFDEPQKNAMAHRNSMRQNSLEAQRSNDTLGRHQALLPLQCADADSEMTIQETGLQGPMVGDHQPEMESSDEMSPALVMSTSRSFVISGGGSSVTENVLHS
Put plainly: Accumulation of tritiated inositol phosphates in CHO(CaSR) cells. The format is cell-based. Conditions: for activation at 10 µM / activity at 10 µM: compound 10 μM; for activation at 10 µM: in the presence of 2 mM Ca2+; for activation at 10 µM / activation at 1 µM: CHO(CaSR) cells, read-out: Accumulation of (3H)-IP % of the 10 mM Ca2+ response ± S.E.; for activity at 10 µM: basal level at 2 mM Ca2+ = 100%, read-out: Accumulation of (1H)-IP % of basal level, CHO (CaSR); for activity greater than that of calcium (10 mM) / activation at 1 µM: compound 1 μM. The source says: The complementary DNA encoding rat CaSR has been isolated from a rat striatum cDNA library (Ruat et al, Proc. Natl. Acad. Sci., 1995). This receptor is identical, in terms of its amino acid sequence, to that expressed in the other tissues. Transfected Chinese hamster ovary (CHO) cells expressing rat CaSR (CHO(CaSR)) have been characterized and the chemical signals (second messengers) induced by activation of this receptor have been analyzed. Thus, a biochemical test for measuring the accumulation of tritiated inositol phosphates, [^3H]IPs, in response to activation of the receptor has been developed (Ruat et al, J. Biol. Chem., 1996; Ferry et al, Biochem. Biophys. Res. Common., 1997).
The calcimimetic activity of the compounds was estimated by measuring the accumulation of tritiated inositol phosphates, […] Ca^2+, in CHO(CaSR) cells (Ferry et al, Biochem Biophys Res Commun, 1997).
This activation was compared with that induced by the compound NPS-R-568, a reference calcimimetic used at a concentration of 10 μM (Table 1) (Ferry et al, Biochem Biophys Res Commun, 1997; Nemeth et al, Proc Natl Acad Sci USA, 1997).
The calcimimetic activity of the PHD/AK compounds is compared with that of a reference compound, NPS-R-568, used at the same concentration and under the same experimental conditions. This activity is expressed as a percentage of the activity of 10 mM of Ca^2+. The means±standard errors of the means of 2 to 5 independent manipulations are indicated. The experiments were carried out in the presence of 2 mM of Ca^2+.
(§1) The accumulation of tritiated inositol phosphates is expressed as a percentage of the basal level observed in the presence of 2 mM Ca^2+ (100%) in CHO (WT^+) or CHO(CaSR) cells.

The next data set deals with CHO (WT*) cells. Put plainly: Accumulation of tritiated inositol phosphates in control CHO(WT*) cells not expressing the CaSR. The format is cell-based, Chinese hamster. The following applies: Cricetulus griseus, 1 h; compound 10 μM; basal level at 2 mM Ca2+ = 100%; read-out: Accumulation of (3H)-IP % of basal level, CHO (WT*). The procedure: as §1
In data set [1] the target is T2, receptors of the parathyroid (Rattus norvegicus, UniProt P48442).
T2 construct: from tissue; host or cells: parathyroid gland of rats (in vivo)
T2 sequence (P48442 20-1079): T1 sequence (P48442 20-1079)
The following applies: rats; cited from earlier work.

The conditions of data set [2]: rats; cited from earlier work.
The conditions of data set [3]: patients (men) suffering from chronic renal failure; cited from earlier work.
The conditions of data set [4]: oral, menopausal women with primary hyperparathyroidism; cited from earlier work.
The conditions of data set [5]: clinical trials phase I-II; cited from earlier work.

On to `CC(NCc1cc2ccccc2n1C)c1cccc2ccccc12` (stereo not drawn) [AK 43], for which, on CaSR, the activation at 10 µM was determined as 79 ± 13% and the activity at 10 µM is 401 ± 16%. Besides, the activity at 10 µM in the data set with CHO (WT*) cells came to 109 ± 2%.

On to `COc1cccc([C@@H](C)NCCCc2ccccc2)c1` [NPS R-467], for which the “selectivity, receptors of the parathyroid compared with those of the thyroid gland” value in data set [1] is given as “more selective”.

For `COc1cccc([C@@H](C)NCCCc2ccccc2Cl)c1.Cl` [NPS R-568], at CaSR, the activation at 10 µM is 106 ± 15% and the activity at 10 µM was found to be 454 ± 33%. For the same compound, the activity at 10 µM in the data set on CHO (WT*) cells was found to be 110 ± 9%. Further, the osteitis fibrosa entry in data set [2] is given as “reduces or eliminates osteitis fibrosa”. In addition, in data set [3], the PTH concentrations entry was “reduces PTH concentrations”. Besides, in data set [4], the “concentrations of PTH” value was “lower” and the “concentrations of free serum Ca2+ ions” value is recorded as “lower”. In addition, in data set [5], the bioavailability entry is “low”.

The term melting point denotes the temperature, or range, at which the solid turns liquid. `C[C@@H](NCc1cc2ccccc2[nH]1)c1cccc2ccccc12.Cl.Cl` [PHD 337-R, (R)-N-[(indole-2-yl)methyl]-N-[1-(1-naphthyl)ethyl]amine.HCl] returned a melting point of 204 °C. Besides, on CaSR, the “activity greater than that of calcium (10 mM)” value came to 50%, the activation at 1 µM turned out to be 73 ± 10% and the activity at 10 µM is 588 ± 129%. Moreover, in the data set with CHO (WT*) cells, the activity at 10 µM came out at 130 ± 9%.

For `C[C@H](NCc1cc2ccccc2[nH]1)c1cccc2ccccc12` [PHD 337-S], at CaSR, the activation at 1 µM turned out to be 3 ± 2%, the activation at 10 µM amounted to 32 ± 5% and the activity at 10 µM is 225 ± 7%. In addition, the activity at 10 µM with CHO (WT*) cells was 132 ± 1%.

As for `CC(NCc1cc2ccccc2[nH]1)c1cccc2ccccc12.Cl.Cl` (stereo not drawn) [PHD 337], on CaSR, the “activity greater than that of calcium (10 mM)” value came to 50%, the activation at 1 µM is 69 ± 9%, the activation at 10 µM is 90 to 100% and the activity at 10 µM was found to be 444 ± 101%. Moreover, the activity at 10 µM in the data set with CHO (WT*) cells came to 147 ± 14%.

For `COc1ccc(S(=O)(=O)n2c(CNC(C)c3cccc4ccccc34)cc3ccccc32)cc1OC` (stereo not drawn) [PHD 338], at CaSR, the activation at 10 µM was 54 ± 5% and the activity at 10 µM came to 202 ± 9%. For the same compound, the activity at 10 µM with CHO (WT*) cells is 111 ± 10%.

With `COc1cccc([C@@H](C)NCc2cc3ccccc3[nH]2)c1` [PHD 356], on CaSR, the “activity greater than that of calcium (10 mM)” value stood at 50%, the activation at 1 µM came to 76 ± 1%, the activation at 10 µM was in the range of 90 to 100% and the activity at 10 µM stood at 482 ± 58%. Also, the activity at 10 µM in the data set on CHO (WT*) cells was found to be 151 ± 7%.

`COc1ccc2[nH]c(CNC(C)c3cccc4ccccc34)cc2c1` (stereo not drawn) [PHD 359]: at CaSR, the activation at 10 µM worked out at 55 ± 5% and the activity at 10 µM was 303 ± 42%. Further, the activity at 10 µM in the data set with CHO (WT*) cells turned out to be 117 ± 8%.

Consider `CC(NCc1cc2cc(F)ccc2[nH]1)c1cccc2ccccc12` (stereo not drawn) [PHD 361], for which, on CaSR, the activation at 10 µM was determined as 87 ± 7% and the activity at 10 µM was found to be 420 ± 70%. In addition, the activity at 10 µM in the data set with CHO (WT*) cells stood at 133 ± 3%.

As to `CC(NCc1cc2cc(Cl)ccc2[nH]1)c1cccc2ccccc12.Cl.Cl` (stereo not drawn) [PHD 363], on CaSR, the “activity greater than that of calcium (10 mM)” value is reported as “less active”, the activation at 1 µM was 6 ± 3%, the activation at 10 µM amounted to 60 ± 1% and the activity at 10 µM came out at 325 ± 67%. In addition, the activity at 10 µM with CHO (WT*) cells was 125 ± 12%.

As to `CC(NCC1Cc2ccccc2N1)c1cccc2ccccc12` (stereo not drawn) [PHD 368], at CaSR, the activation at 10 µM is 77 ± 1% and the activity at 10 µM was found to be 388 ± 85%. In addition, the activity at 10 µM in the data set on CHO (WT*) cells was determined as 126 ± 6%.
